ChEMBL document CHEMBL4130616, “Bastimolide B, an Antimalarial 24-Membered Marine Macrolide Possessing a tert-Butyl Group” (J Nat Prod, 2018)
pIC50: −log10 of the molar value.

Test system: Plasmodium falciparum
Assay: Antimalarial activity against chloroquine-sensitive Plasmodium falciparum HB3 by pico-green dye based fluorescence assay
Format: functional, organism-based
Details: not given

Row | SMILES | pIC50
1 | C/C1=C/C(=O)O[C@H](C(C)(C)C)CCC[C@H](O)CCC[C@H](O)CCC[C@H](O)CCC[C@@H](O)C[C@@H](O)C[C@H](O)CCC[C@@H](O)CCC[C@@H](O)C[C@@H](O)CCCCC1 [listing 1 of 2 here] | 5.85

Same assay, conditions: Plasmodium falciparum, HB3

Row | SMILES | pIC50
2 | C/C1=C/C(=O)O[C@H](C(C)(C)C)CCC[C@H](O)CCC[C@H](O)CCC[C@H](O)CCC[C@@H](O)C[C@@H](O)C[C@H](O)CCC[C@@H](O)CCC[C@@H]2C[C@H](CCCCC1)OC(C)(C)O2 | 5.64
3 | C/C1=C/C(=O)O[C@H](C(C)(C)C)CCC[C@H](O)CCC[C@H](O)CCC[C@H](O)CCC[C@@H]2C[C@H](C[C@H](O)CCC[C@@H](O)CCC[C@@H](O)C[C@@H](O)CCCCC1)OC(C)(C)O2 | 4.70
4 | C/C1=C/C(=O)O[C@H](C(C)(C)C)CCC[C@H](O)CCC[C@H](O)CCC[C@H](O)CCC[C@@H](O)C[C@@H](O)C[C@H](O)CCC[C@@H](O)CCC[C@@H](O)C[C@@H](O)CCCCC1 [listing 2 of 2 here] | 5.59
5 | C/C1=C/C(=O)O[C@H](C(C)(C)C)CCC[C@H](O)CCC[C@H](O)CCC[C@H](O)CCC[C@@H]2C[C@H](C[C@H](O)CCC[C@@H](O)CCC[C@@H]3C[C@H](CCCCC1)OC(C)(C)O3)OC(C)(C)O2 | 5.01
6 | C/C1=C/C(=O)O[C@H](CCC[C@@H](O)CCC[C@@H](O)CCC[C@@H](O)CCC[C@H](O)C(C)(C)C)C[C@@H](O)C[C@H](O)CCC[C@@H](O)CCC[C@@H](O)C[C@@H](O)CCCCC1 | 5.24
